# Test results taken from patent US20070043008A1, “Condensed Bicyclo[3.1.0] Hex-4-EN Derivatives Useful as Antibacterial Agents” (priority 2003, published 2007).
# Where two headings read alike, the source gives them in different places.
# Assays:
# Format in all cases: cell-based
# [1] = system: various bacteria including patient isolates and antibiotic resistant strains; test: Antibacterial evaluation across all bacteria tested (summary of MIC/MBC)
# Experimental: (§1) The Minimal inhibitory concentration (MIC) and the Minimal bactericidal concentration (MBC) have been tested against various bacteria including patient isolates and antibiotic resistant strains such as S. aureus ATCC 25923, E. coli ATCC 25922, P. aeruginosa ATCC 27853.
# (§2) The bacteria were streaked on a nutrient agar plate to obtain a freshly isolated colony subsequently incubated overnight at 37° C. 4-5 isolated colonies were added into Mueller Hinton broth (MHB) solution, incubated for 4 hrs at 37° C. The turbidity was adjusted to the McFarland tube and the solution was diluted with MHB to 1:200.
# The test solution was diluted with dimethyl sulfoxide (DMSO) and MHB in the ratio of 1:4 to get a final concentration of 512 μg/ml. 50 μl of MHB were added to each of twelve wells except the first well. […]
# (§3) In order to determine the MBC, a loopful of each clear well was streaked onto a nutrient containing agar plate, which was subsequently incubated overnight at 37° C. The MBC was then determined as the lowest concentration which has shown no visible colony for each chemical.
# The first step in the evaluation was to determine the zone of inhibition on agar plates comparing the Example compounds with ampicillin and chloramphenicol as standards. Following this initial screening, the MIC/MBC was determined as previously described and the results are outlined in Table 1 for selected examples.
# Escherichia coli = test: MIC/MBC broth dilution, Escherichia coli patient isolates
# Experimental: as §1, §2
# (§4) The test solution was diluted with dimethyl sulfoxide (DMSO) and MHB in the ratio of 1:4 to get a final concentration of 512 μg/ml. 50 μl of MHB were added to each of twelve wells except the first well. Dilutions were made, mixed and the solutions were then incubated overnight at 37° C.
# as §3
# Acinetobacter spp. = test: MIC/MBC broth dilution, Acinetobacter spp. patient isolates
# Experimental: as §1, §2, §4, §3
# Staphylococcus aureus = test: MIC/MBC broth dilution, Staphylococcus aureus patient isolates
# Experimental: as §1, §2, §4, §3
# P. aeruginosa ATCC 27853 = test: MIC/MBC broth dilution, P. aeruginosa ATCC 27853; conditions: Pseudomonas aeruginosa, ATCC27853; P. aeruginosa ATCC 27853, resistant strain (footnote 3)
# Experimental: as §1, §2, §4, §3
# Pseudomonas aeruginosa = test: MIC/MBC broth dilution, Pseudomonas aeruginosa patient isolates
# Experimental: as §1, §2, §4, §3
# E. coli ATCC 25922 = test: MIC/MBC broth dilution, E. coli ATCC 25922; conditions: Escherichia coli, ATCC25922; E. coli ATCC 25922, resistant strain (footnote 3)
# Experimental: as §1, §2, §4, §3
# Klebsiella pneumoniae = test: MIC/MBC broth dilution, Klebsiella pneumoniae patient isolates
# Experimental: as §1, §2, §4, §3
# Enterobacter spp. = test: MIC/MBC broth dilution, Enterobacter spp. patient isolates
# Experimental: as §1, §2, §4, §3
# S. aureus ATCC 25923 = test: MIC/MBC broth dilution, S. aureus ATCC 25923; conditions: Staphylococcus aureus, ATCC25923; S. aureus ATCC 25923, resistant strain (footnote 3)
# Experimental: as §1, §2, §4, §3
# [2] = Enterobacter, patient isolate En1
# [3] = patient isolates, isolate code not given (one value per isolate)
# [4] = Acinetobacter, patient isolates, isolate code not given (one value per isolate), read-out: MIC
# [5] = Enterobacter, patient isolates, isolate code not given (one value per isolate)
smiles,measurement,setting,value
"CN1C2=C(Cl)C(=O)OC21 (stereo not drawn) [Example 1, 4-chloro-6-methyl-2-oxa-6-azabicyclo[3.1.0]hex-4-en-3-one]",MIC for antibiotic resistant strains compared with corresponding non-resistant isolates,[1]; resistant ATCC strains vs patient isolates,lower MIC for the antibiotic resistant strains than the corresponding non-resistant isolates
same,MBC,Escherichia coli; patient isolate E1,32 µg/mL
same,MIC,Escherichia coli; patient isolate E1,32 µg/mL
same,MBC,Escherichia coli; patient isolate E2,64 µg/mL
same,MIC,Escherichia coli; patient isolate E2,64 µg/mL
same,MBC,Escherichia coli; patient isolate E3,64 µg/mL
same,MIC,Escherichia coli; patient isolate E3,64 µg/mL
same,MBC,Escherichia coli; patient isolate E4,64 µg/mL
same,MIC,Escherichia coli; patient isolate E4,32 µg/mL
same,MBC,Escherichia coli; patient isolate E5,64 µg/mL
same,MIC,Escherichia coli; patient isolate E5,64 µg/mL
same,MBC,"Acinetobacter spp.; Acinetobacter, patient isolate A1, read-out: MBC",16 µg/mL
same,MIC,"Acinetobacter spp.; Acinetobacter, patient isolate A1, read-out: MIC",8 µg/mL
same,MBC,"Acinetobacter spp.; Acinetobacter, patient isolate A2, read-out: MBC",64 µg/mL
same,MIC,"Acinetobacter spp.; Acinetobacter, patient isolate A2, read-out: MIC",64 µg/mL
same,MBC,"Acinetobacter spp.; Acinetobacter, patient isolate A3, read-out: MBC",32 µg/mL
same,MIC,"Acinetobacter spp.; Acinetobacter, patient isolate A3, read-out: MIC",16 µg/mL
same,MBC,"Acinetobacter spp.; Acinetobacter, patient isolate A4, read-out: MBC",64 µg/mL
same,MIC,"Acinetobacter spp.; Acinetobacter, patient isolate A4, read-out: MIC",64 µg/mL
same,MBC,"Acinetobacter spp.; Acinetobacter, patient isolate A5, read-out: MBC",32 µg/mL
same,MIC,"Acinetobacter spp.; Acinetobacter, patient isolate A5, read-out: MIC",32 µg/mL
same,MBC,Staphylococcus aureus; patient isolate S1,> 128 µg/mL
same,MIC,Staphylococcus aureus; patient isolate S1,128 µg/mL
same,MBC,Staphylococcus aureus; patient isolate S2,> 128 µg/mL
same,MIC,Staphylococcus aureus; patient isolate S2,128 µg/mL
same,MBC,Staphylococcus aureus; patient isolate S3,128 µg/mL
same,MIC,Staphylococcus aureus; patient isolate S3,64 µg/mL
same,MBC,Staphylococcus aureus; patient isolate S4,> 128 µg/mL
same,MIC,Staphylococcus aureus; patient isolate S4,64 µg/mL
same,MBC,P. aeruginosa ATCC 27853,32 µg/mL
same,MIC,P. aeruginosa ATCC 27853,32 µg/mL
same,MBC,Pseudomonas aeruginosa; patient isolate P7,64 µg/mL
same,MIC,Pseudomonas aeruginosa; patient isolate P7,32 µg/mL
same,MBC,Pseudomonas aeruginosa; patient isolate P10,64 µg/mL
same,MIC,Pseudomonas aeruginosa; patient isolate P10,64 µg/mL
same,MBC,Pseudomonas aeruginosa; patient isolate P12,128 µg/mL
same,MIC,Pseudomonas aeruginosa; patient isolate P12,128 µg/mL
same,MBC,Pseudomonas aeruginosa; patient isolate P13,64 µg/mL
same,MIC,Pseudomonas aeruginosa; patient isolate P13,32 µg/mL
same,MBC,Pseudomonas aeruginosa; patient isolate P14,64 µg/mL
same,MIC,Pseudomonas aeruginosa; patient isolate P14,32 µg/mL
same,MBC,Pseudomonas aeruginosa; patient isolate P16,64 µg/mL
same,MIC,Pseudomonas aeruginosa; patient isolate P16,32 µg/mL
same,MBC,E. coli ATCC 25922,32 µg/mL
same,MIC,E. coli ATCC 25922,16 µg/mL
same,MBC,Klebsiella pneumoniae; patient isolate K1,64 µg/mL
same,MIC,Klebsiella pneumoniae; patient isolate K1,64 µg/mL
same,MBC,Klebsiella pneumoniae; patient isolate K2,64 µg/mL
same,MIC,Klebsiella pneumoniae; patient isolate K2,32 µg/mL
same,MBC,Klebsiella pneumoniae; patient isolate K3,32 µg/mL
same,MIC,Klebsiella pneumoniae; patient isolate K3,32 µg/mL
same,MBC,Klebsiella pneumoniae; patient isolate K4,128 µg/mL
same,MIC,Klebsiella pneumoniae; patient isolate K4,128 µg/mL
same,MBC,Klebsiella pneumoniae; patient isolate K5,64 µg/mL
same,MIC,Klebsiella pneumoniae; patient isolate K5,64 µg/mL
same,MBC,Enterobacter spp.; [2],64 µg/mL
same,MIC,Enterobacter spp.; [2],32 µg/mL
same,MBC,"Enterobacter spp.; Enterobacter, patient isolate En3, read-out: MBC",32 µg/mL
same,MIC,"Enterobacter spp.; Enterobacter, patient isolate En3, read-out: MIC",32 µg/mL
same,MBC,"Enterobacter spp.; Enterobacter, patient isolate En4, read-out: MBC",128 µg/mL
same,MIC,"Enterobacter spp.; Enterobacter, patient isolate En4, read-out: MIC",64 µg/mL
same,MBC,"Enterobacter spp.; Enterobacter, patient isolate En5, read-out: MBC",64 µg/mL
same,MIC,"Enterobacter spp.; Enterobacter, patient isolate En5, read-out: MIC",64 µg/mL
same,MBC,S. aureus ATCC 25923,64 µg/mL
same,MIC,S. aureus ATCC 25923,16 µg/mL
"O=C1OC2NC2=C1Cl (stereo not drawn) [Example 3, 4-chloro-2-oxa-6-azabicyclo[3.1.0]hex-4-en-3-one]",MBC,Escherichia coli; [3],128 µg/mL
same,MIC,Escherichia coli; [3],64 µg/mL
same,MIC,Acinetobacter spp.; [4],32 µg/mL
same,MBC,Staphylococcus aureus; [3],> 128 µg/mL
same,MIC,Staphylococcus aureus; [3],128 µg/mL
same,MBC,P. aeruginosa ATCC 27853,128 µg/mL
same,MIC,P. aeruginosa ATCC 27853,128 µg/mL
same,MBC,Pseudomonas aeruginosa; [3],128 µg/mL
same,MIC,Pseudomonas aeruginosa; [3],128 µg/mL
same,MBC,E. coli ATCC 25922,128 µg/mL
same,MIC,E. coli ATCC 25922,128 µg/mL
same,MBC,Klebsiella pneumoniae; [3],64 µg/mL
same,MIC,Klebsiella pneumoniae; [3],64 µg/mL
same,MBC,Enterobacter spp.; [5],64 µg/mL
same,MIC,Enterobacter spp.; [5],64 µg/mL
same,MBC,S. aureus ATCC 25923,> 128 µg/mL
same,MIC,S. aureus ATCC 25923,128 µg/mL
"O=C1OC2C(=C1Cl)N2Cc1ccccc1 (stereo not drawn) [Example 4, 4-chloro-6-benzyl-2-oxa-6-azabicyclo[3.1.0]hex-4-en-3-one]",broad spectrum antibacterial activity,[1]; summary of Table 1,good broad spectrum activity
same,MBC,Escherichia coli; [3],16 µg/mL
same,MIC,Escherichia coli; [3],16 µg/mL
same,MBC,"Acinetobacter spp.; Acinetobacter, patient isolates, isolate code not given (one value per isolate), read-out: MBC",8 µg/mL
same,MIC,Acinetobacter spp.; [4],4 µg/mL
same,MBC,Acinetobacter spp.; [3],16 µg/mL
same,MIC,Acinetobacter spp.; [3],8 µg/mL
same,MBC,P. aeruginosa ATCC 27853,32 µg/mL
same,MIC,P. aeruginosa ATCC 27853,16 µg/mL
same,MBC,E. coli ATCC 25922,16 µg/mL
same,MIC,E. coli ATCC 25922,8 µg/mL
same,MBC,Enterobacter spp.; [5],16 µg/mL
same,MIC,Enterobacter spp.; [5],8 µg/mL
same,MBC,Enterobacter spp.; [3],32 µg/mL
same,MIC,Enterobacter spp.; [3],16 µg/mL
same,MBC,S. aureus ATCC 25923,8 µg/mL
same,MIC,S. aureus ATCC 25923,4 µg/mL
